Assay results reported in US8426420B2, “Heterocyclic pyrazole-carboxamidesas P2Y12 antagonists” (Sanofi, priority 2007, dated 2013).

What was measured:
human P2Y12 receptor = human P2Y12 receptor (Homo sapiens, UniProt Q9H244); assay: Human P2Y12 recombinant cell membrane binding assay with 33P 2MeS-ADP; conditions: competition against 33P 2MeS-ADP, membranes of CHO cells with recombinant human P2Y12 receptor
How it was run: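 Competition binding against radiolabeled 2MeS-ADP (1.61 nM as added) on membranes from recombinant human P2Y12 CHO cells, 20 min RT after 15 min compound preincubation, pH 7.4. Filtration then scintillation counting; compounds tested in triplicate from 10 μM final, five-fold dilutions, curve fit with plate-defined min/max.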

[1] = tested on: human platelet rich plasma; assay: Inhibition of human platelet aggregation, 96-well assay; type: cell-based; conditions: Homo sapiens, Platelet, 20 min
How it was run: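 ADP-induced aggregation read as 650 nm absorbance every minute for 20 min at 37 °C, with shaking between reads. PRP (~3×E8 platelets/ml, diluted with PPP, ACD-A blood from healthy volunteers) was exposed to compound for 5 min before adding a 40 μM ADP stock (15 μl into 150 μl).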

[2] = tested on: human platelet rich plasma; assay: Inhibition of human platelet aggregation, "Born"-method using single cuvettes; type: cell-based; conditions: 0.1 h, ADP-induced aggregation, 6 minutes

Chain of human P2Y12 receptor (Q9H244 whole entry): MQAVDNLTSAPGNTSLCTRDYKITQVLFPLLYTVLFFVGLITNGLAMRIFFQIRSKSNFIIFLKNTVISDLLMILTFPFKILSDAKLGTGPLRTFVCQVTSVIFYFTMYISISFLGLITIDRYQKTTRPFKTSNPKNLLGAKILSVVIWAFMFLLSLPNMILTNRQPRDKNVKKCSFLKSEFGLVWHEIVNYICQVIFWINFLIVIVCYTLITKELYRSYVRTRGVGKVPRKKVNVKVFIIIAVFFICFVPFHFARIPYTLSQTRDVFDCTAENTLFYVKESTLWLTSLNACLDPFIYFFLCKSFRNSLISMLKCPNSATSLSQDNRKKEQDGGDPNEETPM

IC50 (human P2Y12 receptor) [nM] | IC50 [1] [nM] | IC50 [2] [nM] | SMILES
16 | 130 | 130 | CCCCOC(=O)N1CCN(C(=O)[C@H](COCC)NC(=O)c2cc(OCC(=O)N3CCC[C@H]3C(=O)NC3CCC3)n(-c3ccccc3)n2)CC1 [Example 227, 4-[(S)-2-({5-[2-((S)-2-Cyclobutylcarbamoyl-pyrrolidin-1-yl)-2-oxo-ethoxy]-1-phenyl-1H-pyrazole-3-carbonyl}-amino)-3-ethoxy-propionyl]-piperazine-1-carboxylic acid butyl ester]
14 | 210 | 80 | CCCCOC(=O)N1CCN(C(=O)[C@@H](NC(=O)c2cc(OCC(=O)N3CCC[C@H]3C(=O)NC3CCC3)n(-c3ccccc3)n2)C2CC2)CC1 [Example 230, 4-[(S)-2-({5-[2-((S)-2-Cyclobutylcarbamoyl-pyrrolidin-1-yl)-2-oxo-ethoxy]-1-phenyl-1H-pyrazole-3-carbonyl}-amino)-2-cyclopropyl-acetyl]-piperazine-1-carboxylic acid butyl ester]
19 | 70 | 30 | CCCCOC(=O)N1CCN(C(=O)[C@H](CCOC)NC(=O)c2cc(OCC(=O)N3CCC[C@H]3C(=O)NC3CCC3)n(-c3ccccc3)n2)CC1 [Example 231, 4-[(S)-2-({5-[2-((S)-2-Cyclobutylcarbamoyl-pyrrolidin-1-yl)-2-oxo-ethoxy]-1-phenyl-1H-pyrazole-3-carbonyl}-amino)-4-methoxy-butyryl]-piperazine-1-carboxylic acid butyl ester]
21 | 200 | 60 | CCCCOC(=O)N1CCN(C(=O)[C@H](CC)NC(=O)c2cc(OCC(=O)N3CCC[C@H]3C(=O)NC3CCC3)n(-c3ccccc3)n2)CC1 [Example 233, 4-[(S)-2-({5-[2-((S)-2-Cyclobutylcarbamoyl-pyrrolidin-1-yl)-2-oxo-ethoxy]-1-phenyl-1H-pyrazole-3-carbonyl}-amino)-butyryl]-piperazine-1-carboxylic acid butyl ester]
